Patent US7906502B2, “2-azetidinone derivatives as cholesterol absorption inhibitors for the treatment of hyperlipidaemic conditions” (AstraZeneca AB, priority 2005, dated 2011)

How the values were obtained:
[1] = Absorption in a Caco-2 cells model; type: in vitro ADME; details: human
Procedure: Absorption of the compounds of formula (I) was tested in a Caco-2 cells model (Gastroenterology 1989, 96, 736): […]

[2] = test system: 14C-cholesterol absorption; assay: In vivo testing of cholesterol absorption inhibitors (A); parameters: species or system C57BL/6 female mice; details: 0.2 μmol/kg, gavage, procedure A, mice
Procedure: In vivo Testing of Cholesterol Absorption Inhibitors (A)
C57BL/6 female mice were maintained on regular chow diet and housed in individual cages to collect faeces. Mice were fasted for 3 hours and then gavaged with vehicle or compound. Half an hour later the mice were gavaged with radiolabelled cholesterol. Six hours after the ^14C-cholesterol gavage blood samples were taken via the tail and plasma prepared to determine how much cholesterol were absorbed. 24 hours after the gavage of ^14C-cholesterol the mice were bled and plasma were prepared for analysis. Faeces were collected for 24 hours to assess absorption efficiency.

Row | Papp [1] | SMILES | inhibition of 14C-cholesterol absorption [2]
1 | 0.05 ×10⁻⁶ cm/s | O=C(COc1ccc([C@@H]2[C@@H](SCC(O)c3ccc4c(c3)OCO4)C(=O)N2c2ccc(F)cc2)cc1)NCC(=O)N[C@H](CC1CCCCC1)C(=O)O (single isomer, unassigned) [Example 13, N-({4-[(2R,3R)-3-{[(2R or S)-2-(1,3-benzodioxol-5-yl)-2-hydroxyethyl]thio}-1-(4-fluorophenyl)-4-oxoazetidin-2-yl]phenoxy}acetyl)glycyl-3-cyclohexyl-D-alanine] | 
2 |  | CC(C)(C)[C@@H](NC(=O)CNC(=O)COc1ccc([C@@H]2[C@@H](SCC(O)c3ccc4c(c3)OCO4)C(=O)N2c2ccc(F)cc2)cc1)C(=O)O (stereo partly drawn) [Example 3, N-({4-[(2R,3R)-3-{[2-(1,3-Benzodioxol-5-yl)-2-hydroxyethyl]thio}-1-(4-fluorophenyl)-4-oxoazetidin-2-yl]phenoxy}acetyl)glycyl-3-methyl-D-valine] | 67%
3 | 0.02 ×10⁻⁶ cm/s | CC(C)(C)[C@@H](NC(=O)CNC(=O)COc1ccc([C@@H]2[C@@H](SCC(O)c3ccc4c(c3)OCCO4)C(=O)N2c2ccc(F)cc2)cc1)C(=O)O (stereo partly drawn) [Example 1, N-({4-[(2R,3R)-3-{[2-(2,3-dihydro-1,4-benzodioxin-6-yl)-2-hydroxyethyl]thio}-1-(4-fluorophenyl)-4-oxoazetidin-2-yl]phenoxy}acetyl)glycyl-3-methyl-D-valine] | 61%
